This is an account of results in patent US10800741B2 (ANCUREALL PHARMACEUTICAL (SHANGHAI) CO., LTD., priority 2017, dated 2020).

For one assay, the system named is Hep3B2 (FGFR3/4+++). Kind of assay: In vitro growth inhibition of Hep3B2 tumor cells (MTT/CCK8). In kind it is cell-based, Human. To be noted: Homo sapiens, Hep3B; in vitro growth inhibition (or induction of apoptosis), cells cultured 3 to 5 days, MTT (CCK8); read-out: IC50 Hep3B2 (FGFR3/4+++).
Another assay concerns SNU-16. Kind of assay: In vitro growth inhibition of SNU-16 cells. In kind it is cell-based. To be noted: Homo sapiens, FGFR2 amp. How it is done: (§1) Adherent cells were digested with 0.25% trypsin-EDTA (Gibco). Suspension culture cells were collected by centrifugation (1700 rpm, 3 minutes). The supernatant was discarded and the cells were counted. According to each cell growth cycle, different concentrations of cells were prepared (5˜10×10^4 cells per ml), and inoculated to 96-well plates (Corning), with 100 μl per well, and incubated overnight at 37° C., 5% CO2. The next day, the test compound was added to the cultured cells (2 wells in parallel). The final concentration of the solvent was less than 1/1,000. The cells were further cultured for 3 to 5 days and assayed by MTT.
(§2) The MTT test reagent was a Dojindo CCK8 kit and the Microplate Reader was a THERMO […] FC instrument.
(§3) The adherent cells were taken out from the cell culture medium, and immediately added to a freshly prepared complete medium containing 10% CCK8 (5% FBS), 100 ul per hole. The suspended cells were directly added to a CCK8 reagent until reaching a final concentration of 10% and cultured for 1 to 4 hours. When a dark yellow color could be observed in the solvent control wells, the absorbance value at OD450 nm was measured and the cell growth rate was calculated according to the following formula: Cell Growth Rate (%)=100×(T−T0)/(C−T0)
(§4) T=optical density of drug-treated cell wells−optical density of blank control wells; T0=optical density of cell wells before drug treatment−optical density of blank control wells; C=optical density of solvent control wells−optical density of blank control wells. […] The experiments were repeated 1 to 3 times and a statistical analysis of data was conducted.
(§5) Mutations in the FGFR1-4 gene often occur in different types of cancer patients. In order to test the growth inhibition activity of the present compound against tumor cells expressing different FGFR variants, tumor cell lines expressing representative FGFR1-4 were selected for further determining the activity of compounds 25, 66, 38 and 95 of the present invention. BGJ398, a selective inhibitor of FGFR1-4, was used as the control compound. The specific test method is the same as test example 1.

The test system of a further assay is A2780. Nature of the assay: In vitro growth inhibition of PI3KCA amplified/mutant tumor cells A2780. In kind it is cell-based. The settings on record: Homo sapiens; A2780; PIK3CA E365K; read-out: IC50 growth inhibition. How it is done: (§6) Suspension culture cells were collected by centrifugation (1700 rpm, 3 minutes). The supernatant was discarded and the cells were counted. According to each cell growth cycle, different concentrations of cells were prepared (5˜10×10^4 cells per ml), and inoculated to 96-well plates (Corning), with 100 μl per well, and incubated overnight at 37° C., 5% CO2. The next day, the test compound was added to the cultured cells (2 wells in parallel). The final concentration of the solvent was less than 1/1,000. The cells were further cultured for 3 to 5 days and assayed by MTT.
(§7) The adherent cells were taken out from the cell culture medium, and immediately added to a freshly prepared complete medium containing 10% CCK8 (5% FBS), 100 ul per hole. The suspended cells were directly added to a CCK8 reagent until reaching a final concentration of 10% and cultured for 1 to 4 hours.
as §4

For a further assay, the system named is HGC-27. Kind of assay: In vitro growth inhibition of PI3KCA amplified/mutant tumor cells HGC-27. In kind it is cell-based. To be noted: Homo sapiens; HGC-27; PI3KCA H1047R; FGFR1OP2+++; read-out: IC50 growth inhibition. How it is done: as §6, §7, §4
The next assay deals with MDA-MB-453. Kind of assay: In vitro growth inhibition of MDA-MB-453 cells. In kind it is cell-based. The settings on record: Homo sapiens, PI3KCA H1047R, FGFR4+++/Y367C. How it is done:
as §1, §2, §3, §4, §5

In a further assay the test system is A375. Kind of assay: In vitro growth inhibition of A375 cells. In kind it is cell-based. The settings on record: Homo sapiens, A-375, BRAF V600E, FGFR2 mutant. How it is done:
as §1, §2, §3, §4, §5

For a further assay, the system named is MOLM-13 (FLT3-ITD). Kind of assay: In vitro growth inhibition of MOLM-13 tumor cells (MTT/CCK8). Type of assay: cell-based, Human. The settings on record: Homo sapiens, MOLM-13; in vitro growth inhibition (or induction of apoptosis), cells cultured 3 to 5 days, MTT (CCK8); read-out: IC50 MOLM-13 (FLT3-ITD).
Another assay deals with H1581 (FGFR1 amp). Nature of the assay: In vitro growth inhibition of H1581 tumor cells (MTT/CCK8). In kind it is cell-based, Human. To be noted: Homo sapiens, NCI-H1581; in vitro growth inhibition (or induction of apoptosis), cells cultured 3 to 5 days, MTT (CCK8); read-out: IC50 H1581 (FGFR1 amp).
The next assay relates to NCI-H460. Kind of assay: In vitro growth inhibition of PI3KCA amplified/mutant tumor cells NCI-H460. Type of assay: cell-based. To be noted: Homo sapiens; NCI-H460; PI3KCA E545K; KRAS Q61H; read-out: IC50 growth inhibition. How it is done: as §6, §7, §4
In a further assay the test system is AN3-CA. Kind of assay: In vitro growth inhibition of AN3-CA cells. Type of assay: cell-based. The settings on record: Homo sapiens, FGFR2 mutant. How it is done:
as §1, §2, §3, §4, §5

In a further assay the test system is Karpas 299 (NPM-ALK). Kind of assay: In vitro growth inhibition of Karpas 299 tumor cells (MTT/CCK8). In kind it is cell-based, Human. To be noted: Homo sapiens, KARPAS-299; in vitro growth inhibition (or induction of apoptosis), cells cultured 3 to 5 days, MTT (CCK8); read-out: IC50 Karpas 299 (NPM-ALK).
The next assay concerns Hep G2. Kind of assay: In vitro growth inhibition of Hep G2 cells. In kind it is cell-based. The settings on record: Homo sapiens, HepG2, FGFR3+++, FGFR4 +++. How it is done: as §1, §2, §3, §4, §5
Another assay deals with RT112/84. Kind of assay: In vitro growth inhibition of RT112/84 cells. In kind it is cell-based. To be noted: Homo sapiens, FGFR3-TACC3. How it is done: as §1, §2, §3, §4, §5

Each structure is given as a SMILES string.

Regarding `COc1cc2nccc(Oc3ccc(NC(=O)Nc4cc(C(C)(C)C)nn4C)c(Cl)c3Cl)c2cc1C(N)=O` [Compound 38, 4-{4-[3-(5-tert-butyl-2-methyl-2H-pyrazol-3-yl)-ureido]-2,3-dichloro-phenoxy}-7-methoxyquinolin-6-carboxamide], the IC50 with Hep3B2 (FGFR3/4+++) turned out to be 4.24 nM; in the assay on SNU-16 it was 2.03 nM; in the assay on A2780, 9.1 nM; in the assay with HGC-27 it was 19.2 nM; with MDA-MB-453, 19.8 nM; in the assay on A375, 16.7 nM. The IC50 in the assay on MOLM-13 (FLT3-ITD) is 0.85 nM; in the assay with H1581 (FGFR1 amp) it was 0.29 nM; with NCI-H460, 25.7 nM; in the assay with AN3-CA it was 3.67 nM; in the assay on Karpas 299 (NPM-ALK) it was 11.7 nM; in the assay on Hep G2, 119 nM. The same molecule gave an IC50 in the assay on RT112/84 of 10.1 nM.

As for `COCCOc1cc2nccc(Oc3ccc(NC(=O)Nc4cc(C(C)(C)C)n[nH]4)c(Cl)c3)c2cc1NC(C)=O` [Compound 66, N-[4-{4-[3-(5-tert-butyl-2H-pyrazol-3-yl)-ureido]-3-chloro-phenoxy}-7-(2-methoxy-ethoxy)-quinolin-6-yl]-acetamide], the IC50 worked out at 6.06 nM in the assay with Hep3B2 (FGFR3/4+++); 1.01 nM in the assay with SNU-16; 7.68 nM in the assay on A2780; 39.9 nM in the assay with HGC-27; 19.3 nM in the assay with MDA-MB-453; 31.5 nM in the assay on A375. The IC50 with MOLM-13 (FLT3-ITD) turned out to be 0.87 nM; in the assay on H1581 (FGFR1 amp), 2.03 nM; in the assay with NCI-H460, 26.2 nM; in the assay on AN3-CA, 3.95 nM; in the assay on Karpas 299 (NPM-ALK), 44.1 nM; with Hep G2, 79.1 nM. This molecule displayed an IC50 in the assay on RT112/84 of 25.6 nM.

Regarding `CN1CCN(CCCOc2cc3nccc(Oc4ccc(NC(=O)Nc5cc(C(C)(C)C)n[nH]5)c(Cl)c4Cl)c3cc2C(N)=O)CC1` [Compound 95], the IC50 with Hep3B2 (FGFR3/4+++) was 8.52 nM; in the assay with SNU-16 it was 3.34 nM; in the assay with A2780, 9.2 nM; in the assay with HGC-27, 30.9 nM; with MDA-MB-453 it was 49.2 nM; with A375, 62.1 nM. In addition, the IC50 in the assay with MOLM-13 (FLT3-ITD) was 1.75 nM; in the assay with H1581 (FGFR1 amp), 7.88 nM; in the assay on NCI-H460, 34.5 nM; in the assay with AN3-CA, 3.89 nM; with Karpas 299 (NPM-ALK), 7.5 nM; in the assay with Hep G2, 128 nM. Besides, the IC50 with RT112/84 came out at 9.76 nM.
